Assay results taken from US4002623A, “Anti-inflammatory 1-[3-(dialkylamino)propyl]-2-acylaminobenzimidazoles and 2-acylamino-3-[3-(dialkylamino)-propyl]imidazo[4,5-b]pyridines” (Pfizer Inc., priority 1974, dated 1977).
Like-named read-outs stand apart in the source and are kept apart here.

Assay: adjuvant arthritis screen (Walz et al.), swelling of the non-injected left hind foot on Day 16
Format: in vivo, male inbred Lewis rats
Details: Rattus norvegicus, 384 h, daily day -1 through day 15, read-out: Activity Percent Inhibition; for inhibition in vivo at 20 mg/kg: 20 mg./kg. po; for inhibition in vivo at 33 mg/kg: 33 mg./kg. ip
Source text: The adjuvant arthritis test described by Walz et al., Ann. Rheum. Dis., 30, 303 (1971) was selected as the method of choice for the determination of the extent of which the novel compounds of the present invention are therapeutically effective as anti-inflammatory agents. Adjuvant arthritis is a crippling deformity in rats resulting from diffuse connective tissue involvement. It is considered by some authorities to be the best available experimental animal model of human rheumatoid arthritis because of its strong clinical and pathological similarities to the human disease and because it can be effectively treated with known anti-arthritic drugs. In this test, lesions resembling those of human rheumatoid arthritis are induced by the injection of complete Freund's adjuvant into one hind leg of a rat. A vigorous inflammatory response occurs in the injected hind leg and reaches its greatest size in about four days. This primary response is followed by the development of a second inflammatory response, appearing about 12-16 days post-injection, that occurs in the uninjected hind leg. While the compounds of the invention are capable of inhibiting the degree of inflammation in both legs, the inhibition of swelling in the uninjected leg at 16 days is considered to be the more meaningful measure of antiarthritic activity.
The adjuvant arthritis screen as described by Walz et al. (Ann. Rheum. Dis., 30: 303 (1971), was used to evaluate the above prepared compounds.
The screen is conducted using male inbred Lewis rats weighing approximately 250 gm. The animals are dosed with drug beginning on day- 1 and continuing daily through day 15. On Day 0, the subplanter surface of the right hind paw is injected with 0.1cc of a 1% suspension of Mycobacterium butyricum (Freunds adjuvant) in Primol (Esso). The swelling of the non-injected left hind foot on Day 16, resulting from immune response to adjuvant, was determined for dosed animals and controls. The foot volume is measured by immersing the paw to the anatomical hairline into a mercury reservoir which is connected to a Statham pressure transducer and a recording device. The results are expressed as % inhibition calculated according to the following equation: [formula] The results obtained are as follows for [drawing 22] where Z is --N(CH3)2 and X is carbon: […]

Structure (SMILES) | inhibition in vivo at 20 mg/kg | inhibition in vivo at 33 mg/kg | other results
COc1cccc(C(=O)Nc2nc3cc(S(=O)(=O)N(C)C)ccc3n2CCCN2CCN(C)CC2)c1 [3-Methoxyphenyl; SO2 N(CH3)2; H; drawing 24] | 13% |  | 
Cc1cccc(C(=O)Nc2nc3ccccc3n2CCCN(C)C)c1 [3-Methylphenyl; H; H; Z = N(CH3)2] |  | 21% | 
Cc1cccc(C(=O)Nc2nc3ccccc3n2CCCN2CCOCC2)c1 [3-Methylphenyl; H; H; drawing 23] |  | 40% | 
Cc1cccc(C(=O)Nc2nc3ccccc3n2CCCN2CCN(C)CC2)c1 [3-Methylphenyl; H; H; drawing 24] |  | 39% | 
CN1CCN(CCCn2c(NC(=O)c3cccc(C(F)(F)F)c3)nc3cc(C(F)(F)F)ccc32)CC1 [3-Trifluoromethylphenyl; CF3; H; drawing 24, 1-[3-(4-methyl-1-piperazinyl)propyl]-2-(3-trifluoromethylbenzamido)-5-trifluoromethylbenzimidazole] |  | 83% | inhibition in vivo at 10 mg/kg (10 mg./kg. po): 46%
Cc1ccc2c(c1)nc(NC(=O)c1cccc(C(F)(F)F)c1)n2CCCN1CCN(C)CC1 [3-Trifluoromethylphenyl; CH3; H; drawing 24] | 27% |  | 
CN1CCN(CCCn2c(NC(=O)c3cccc(C(F)(F)F)c3)nc3cc(Cl)c(Cl)cc32)CC1 [3-Trifluoromethylphenyl; Cl; Cl; drawing 24] |  | 74% | 
CN1CCN(CCCn2c(NC(=O)c3cccc(C(F)(F)F)c3)nc3cc(Cl)ccc32)CC1 [3-Trifluoromethylphenyl; Cl; H; drawing 24] |  | 74% | inhibition in vivo at 10 mg/kg (10 mg./kg. po): 16%
Cc1ccc2nc(NC(=O)c3cccc(C(F)(F)F)c3)n(CCCN3CCN(C)CC3)c2c1 [3-Trifluoromethylphenyl; H; CH3; drawing 24] | 21% |  | 
O=C(Nc1nc2ccccc2n1CCCN1CCOCC1)c1cccc(C(F)(F)F)c1 [3-Trifluoromethylphenyl; H; H; drawing 23] |  | 0% | 
CN1CCN(CCCn2c(NC(=O)c3cccc(C(F)(F)F)c3)nc3ccccc32)CC1 [3-Trifluoromethylphenyl; H; H; drawing 24] |  | 79% | inhibition in vivo at 10 mg/kg (10 mg./kg. po): 18%
CN1CCN(CCCn2c(NC(=O)c3cccc(C(F)(F)F)c3)nc3cccnc32)CC1 [3-Trifluoromethylphenyl; H; H; drawing 25, 2-(3-trifluoromethylbenzamido)-3-[3-(4-methyl-1-piperazino)propyl]imidazo[4,5-b]pyridine] | 39% |  | 
O=C(Nc1nc2ccccc2n1CCCN1CCCCC1)c1cccc(C(F)(F)F)c1 [3-Trifluoromethylphenyl; H; H; drawing 26] |  | 30% | 
O=C(Nc1nc2ccccc2n1CCCN1CCN(Cc2ccccc2)CC1)c1cccc(C(F)(F)F)c1 [3-Trifluoromethylphenyl; H; H; drawing 27] |  |  | inhibition in vivo at 10 mg/kg (10 mg./kg. ip): 35%
O=C(Nc1nc2ccccc2n1CCCN1CCNCC1)c1cccc(C(F)(F)F)c1 [3-Trifluoromethylphenyl; H; H; drawing 28] |  |  | inhibition in vivo at 10 mg/kg (10 mg./kg. po): 13%
COc1ccc2c(c1)nc(NC(=O)c1cccc(C(F)(F)F)c1)n2CCCN1CCN(C)CC1 [3-Trifluoromethylphenyl; OCH3; H; drawing 24] |  | 57% | inhibition in vivo at 10 mg/kg (10 mg./kg. po): -5%
CN1CCN(CCCn2c(NC(=O)c3ccc(Cl)cc3)nc3cc(C(F)(F)F)ccc32)CC1 [4-Chlorophenyl; CF3; H; drawing 24] |  | 47% | 
Cc1cc2nc(NC(=O)c3ccc(Cl)cc3)n(CCCN3CCN(C)CC3)c2cc1C [4-Chlorophenyl; CH3; CH3; drawing 24] | 30% |  | 
Cc1ccc2c(c1)nc(NC(=O)c1ccc(Cl)cc1)n2CCCN1CCN(C)CC1 [4-Chlorophenyl; CH3; H; drawing 24] | 27% |  | 

Structure (SMILES) | inhibition in vivo at 20 mg/kg | inhibition in vivo at 33 mg/kg | other results
CN1CCN(CCCn2c(NC(=O)c3ccc(Cl)cc3)nc3cc(Cl)ccc32)CC1 [4-Chlorophenyl; Cl; H; drawing 24] |  | 63% | inhibition in vivo at 10 mg/kg (10 mg./kg. po): -10%
CN(C)CCCn1c(NC(=O)c2ccc(Cl)cc2)nc2ccccc21 [4-Chlorophenyl; H; H; Z = N(CH3)2, 1-[3-(dimethylamino)propyl]-2-(4-chlorobenzamido)-benzimidazole] |  | 51% | inhibition in vivo at 10 mg/kg (10 mg./kg. ip): 27%
O=C(Nc1nc2ccccc2n1CCCN1CCOCC1)c1ccc(Cl)cc1 [4-Chlorophenyl; H; H; drawing 23] |  | 15% | 
CN1CCN(CCCn2c(NC(=O)c3ccc(Cl)cc3)nc3ccccc32)CC1 [4-Chlorophenyl; H; H; drawing 24] |  | 43% | 
CN1CCN(CCCn2c(NC(=O)c3ccc(Cl)cc3)nc3cccnc32)CC1 [4-Chlorophenyl; H; H; drawing 25] | 26% |  | 
O=C(Nc1nc2ccccc2n1CCCN1CCCCC1)c1ccc(Cl)cc1 [4-Chlorophenyl; H; H; drawing 26] |  | 46% | 
CN1CCN(CCCn2c(NC(=O)c3ccc(Cl)cc3)nc3cc(S(=O)(=O)N(C)C)ccc32)CC1 [4-Chlorophenyl; SO2 N(CH3)2; H; drawing 24] | 18% |  | 
CN1CCN(CCCn2c(NC(=O)C=Cc3ccc(Cl)cc3)nc3cc(C(F)(F)F)ccc32)CC1 [4-Chlorostyryl; CF3; H; drawing 24] | 6% |  | 
Cc1ccc2c(c1)nc(NC(=O)C=Cc1ccc(Cl)cc1)n2CCCN1CCN(C)CC1 [4-Chlorostyryl; CH3; H; drawing 24, 1-[3-(4-methyl-1-piperazinyl)propyl]-2-(p-chlorocinnamido)-5-methylbenzimidazole] | 39% |  | 
CN1CCN(CCCn2c(NC(=O)C=Cc3ccc(Cl)cc3)nc3cc(Cl)ccc32)CC1 [4-Chlorostyryl; Cl; H; drawing 24] |  | 66% | 
CN(C)CCCn1c(NC(=O)C=Cc2ccc(Cl)cc2)nc2ccccc21 [4-Chlorostyryl; H; H; Z = N(CH3)2] |  | 33% | 
COc1ccc2c(c1)nc(NC(=O)C=Cc1ccc(Cl)cc1)n2CCCN1CCN(C)CC1 [4-Chlorostyryl; OCH3; H; drawing 24] |  |  | inhibition in vivo at 10 mg/kg (10 mg./kg. po): 47%
COc1ccc(C(=O)Nc2nc3cc(Cl)ccc3n2CCCN2CCN(C)CC2)cc1 [4-Methoxyphenyl; Cl; H; drawing 24] |  | 46% | 
COc1ccc(C(=O)Nc2nc3ccc(C)cc3n2CCCN2CCN(C)CC2)cc1 [4-Methoxyphenyl; H; CH3; drawing 24] | 22% |  | 
COc1ccc(C(=O)Nc2nc3ccccc3n2CCCN(C)C)cc1 [4-Methoxyphenyl; H; H; Z = N(CH3)2, 1-[3-(dimethylamino)propyl]-2-(4-methyoxybenzamido-)benzimidazole] |  | 59% | inhibition in vivo at 10 mg/kg (10 mg./kg. po): 12%
COc1ccc(C(=O)Nc2nc3ccccc3n2CCCN2CCOCC2)cc1 [4-Methoxyphenyl; H; H; drawing 23] |  | 54% | 
COc1ccc(C(=O)Nc2nc3ccccc3n2CCCN2CCN(C)CC2)cc1 [4-Methoxyphenyl; H; H; drawing 24] |  | 27% | 
COc1ccc(C(=O)Nc2nc3cccnc3n2CCCN2CCN(C)CC2)cc1 [4-Methoxyphenyl; H; H; drawing 25] | 5% |  | 
COc1ccc(C(=O)Nc2nc3ccccc3n2CCCN2CCN(Cc3ccccc3)CC2)cc1 [4-Methoxyphenyl; H; H; drawing 27] |  |  | inhibition in vivo at 10 mg/kg (10 mg./kg. ip): 32%
